# Reference: patent US20100055168A1, “CATIONIC LIPIDS AND USES THEREOF” (ABBOTT LABORATORIES, priority 2008, published 2010)
# Key:
# Assay type in all cases: physicochemical
# Conditions in all cases: Lipid:siRNA 25:1
# [1] = Ribogreen assay for siRNA encapsulation efficiency of Lipid-Based Particles
# Method: The mixing solution of cationic lipids, cholesterol, non-cationic lipids and PEG-lipids was prepared in ethanol (total concentration at 10 mg/mL). siSTABLE (purchased from ThermoFisher) (sense-5′ GGGGAAAGCUGGCAAGAUUUU-3′ SEQ ID NO: 1) antisense-5′-AAUCUUGCCAGCUUUCCCCUU-3′ SEQ ID NO: 2) % stock solution was prepared in 10 mg/mL of solution by dissolving 10 mg siRNA in 1 mL of RNAse-free UltraPure Water. The calculated amount of siRNA solution was added to 1 mL of citrate buffer (pH 4.0, 20 mM), to provide an siRNA concentration of 0.2 mg/mL, and warmed to 60° C. The calculated amount of lipid solution was warmed to 60° C., transferred to a 0.5 mL syringe with 28½ gauge needle, and injected into the citrate buffer with stirring at 60° C. After 3 minutes, 3 mL of PBS solution at room temperature (pH 7.4) was added into the lipid mixture with stirring. The Lipid-Based Particle solution was cooled to room temperature.
# (§1) The siRNA concentrations were measured using Quanti-iT RiboGreen RNA reagent (Molecular Probes, (R11490)). Vesicle sizes were characterized by dynamic light scattering with a DynaPro™ Plate Reader (Wyatt Technology) in 96-well half-area UV plate (Coring) after diluting the formulation sample (20 μL) in phosphate buffered saline (80 μL) at a pH of about 7-8. A 1% agarose gel-based assay was used for analyzing nuclease degradation and protection. Encapsulation efficiency (EE) was calculated using data obtained from a RiboGreen assay.
# RNA concentration and encapsulation efficiency were determined using a Quant-iT® Ribogreen RNA reagent and kit available from Invitrogen. The siRNA was released from the Lipid-Based Particle using one of the following reagents: ethanol, Triton X-100, or phenol/chloroform. The siRNA concentration is quantified using fluorescent reading at 480 nm/520 nm.
# (§2) A round bottom flask was submerged into a 65° C. water bath. Citrate buffer (37.5 ml) of pH 4.0 was pipetted into the flask. The solution was stirred by a magnetic stirring bar at a speed of 900 rpm. Both the pH 4.0 citrate buffer and the lipid solution were pre-warmed in the 65° C. water bath for about 3 minutes. A siRNA solution (0.5 ml) was pipetted into the pH 4.0 citrate buffer. The 12.5 ml lipid mixture solution was injected through a 27 gauge needle into the citrate buffer in about 30 seconds. The needle tip was inserted into the solution during the injection. The resulting solution was stirred for 5 minutes at a speed of 900 rpm. The flask was pulled up from the water bath and a 50 ml pH 7.4 PBS buffer was added into the flask. The final solution was further mixed at a speed of 900 rpm for 5 minutes. For the diafiltration process, a dialysis filter (Millipore, 100K, Cat #PXB100C50) was used to remove ethanol in the above solution. When the volume was reduced to 20 ml during the initial diafiltration, 20 ml of pH 7.4 PBS was added to the sample solution. The diafiltration was continued until the volume was reduced to 20 ml. The diafiltration process was repeated 4 times. The volume of the sample solution was reduced to about 12 ml and pH 7.4 PBS was added to make the final volume of 15 ml. The 15 ml solution was filtered sequentially through the 0.45 and 0.22 μm sterile PVDF membrane filters (Millipore) and immediately transferred into a sterile vial.
# [2] = Particle sizing assay of in vivo formulations (Zetasizer Nano ZS)
# Method: as §2
# For measurements of particle sizes and size distributions (PDI), lipid-based particles were prepared as described above. The particle solution (60 μL) was pipetted into a disposable cuvette (UVette, Eppendorf, cat #952010051) and measured in the “General Purpose” mode. Attenuator and position were optimized by the device. Measurements were performed using a Zetasizer Nano ZS (Malvern Instruments) equipped with a 4 mW He—Ne laser at a wavelength of 633 nm at 25° C. Scattered light was detected at a 173° backward scattering angle. The viscosity and refractive index of water at 25° C. was used for data analysis with the Dispersion Technology Software 5.00 (Malvern Instruments).
# [3] = Particle sizing assay of in vitro formulations (dynamic light scattering, DynaPro plate reader)
# Method: as §1
# Particle sizes and size distributions (PDI) were characterized by using dynamic light scattering (DLS). A DLS plate reader (Dynapro™, Wyatt Technology) was used for the DLS measurement. This DLS plate reader uses an 830 nm laser and the scattering angle is 158°. It also can control temperature from 4° C. to 70° C. A 96-well format was employed for the samples.
# Samples for DLS analysis were prepared by mixing 20 μL of each sample stock solution with 80 μL PBS directly in the 96-well plate (#3697, Coming). Sample mixing was accomplished using a microplate shaker (Orbis, Mikura Ltd.). Plates were read at 20° C. with an acquisition time of 50 seconds for each sample, and data was analyzed with Wyatt Technology's Dynamics V6 software. To rule out potential multiple scattering artifacts, a second plate at […] reduced sample concentrations was independently prepared by mixing 5 μL stock solutions with 95 μL PBS. Under our experimental conditions the results at the two concentrations were very similar, and the final reported result for each sample represents the average of values obtained from the two plates.
# [4] = in vivo formulation A: Cationic lipid/Example 58/DSPC/Chol 45/10/15/30 wt %
# [5] = in vitro formulation b: Cationic lipid/PEG-Chol/DSPC/Chol 45/10/15/30 wt %
# [6] = in vivo formulation C: Cationic lipid/Pal-PEG-Cera/DSPC/Chol 45/10/15/30 wt %
# [7] = in vitro formulation a: Cationic lipid/Example 56/DSPC/Chol 45/10/15/30 wt %
# [8] = in vivo formulation D: Cationic lipid/PEG-DMPE/PEG-DSPE/DSPC/Chol 44/4.5/4.5/14/33 wt %
structure (smiles),measurement,setting,value
"CCCCC/C=C\C/C=C\CCCCCCCCOCC(COCCCCCCCC/C=C\C/C=C\CCCCC)NCCCn1ccnc1 [Example 3, N-(3-(1H-imidazol-1-yl)propyl)-N-(2-((9Z,12Z)-octadeca-9,12-dienyloxy)-1-(((9Z,12Z)-octadeca-9,12-dienyloxy)methyl)ethyl)amine]",% Encapsulation Efficiency,[1]; [4],87.6%
same,Size,[2]; [4],185 nm
"CCCCC/C=C\C/C=C\CCCCCCCCOCC(COCCCCCCCC/C=C\C/C=C\CCCCC)N1CCN(C)CC1 [Example 4, 1-methyl-4-(2-((9Z,12Z)-octadeca-9,12-dienyloxy)-1-(((9Z,12Z)-octadeca-9,12-dienyloxy)methyl)ethyl)piperazine]",Size,[3]; [5],125.6 nm
same,% Encapsulation Efficiency,[1]; [5],96.7%
same,% Encapsulation Efficiency,[1]; [4],72.6%
same,PDI (size distribution),[2]; [4],0.2
same,Size,[2]; [4],149 nm
"CCCCC/C=C\C/C=C\CCCCCCCCOCC(COCCCCCCCC/C=C\C/C=C\CCCCC)NCCCN1CCCC1 [Example 6, N-(2-((9Z,12Z)-octadeca-9,12-dienyloxy)-1-(((9Z,12Z)-octadeca-9,12-dienyloxy)methyl)ethyl)-N-(3-pyrrolidin-1-ylpropyl)amine]",Size,[3]; [5],132.6 nm
same,% Encapsulation Efficiency,[1]; [5],84.2%
same,% Encapsulation Efficiency,[1]; [4],75.5%
same,PDI (size distribution),[2]; [4],0.145
same,Size,[2]; [4],121 nm
"CCCCC/C=C\C/C=C\CCCCCCCCOCC(COCCCCCCCC/C=C\C/C=C\CCCCC)NCCN(C)C [Example 7, N,N-dimethyl-N′-(2-((9Z,12Z)-octadeca-9,12-dienyloxy)-1-(((9Z,12Z)-octadeca-9,12-dienyloxy)methyl)ethyl)ethane-1,2-diamine]",Size,[3]; [5],130 nm
same,% Encapsulation Efficiency,[1]; [5],91.8%
same,% Encapsulation Efficiency,[1]; [6],91.8%
same,PDI (size distribution),[2]; [4],0.15
same,Size,[2]; [4],123 nm
same,PDI (size distribution),[2]; [6],0.128
same,Size,[2]; [6],119 nm
"CCCCC/C=C\C/C=C\CCCCCCCCOCC(COCCCCCCCC/C=C\C/C=C\CCCCC)NCCc1c[nH]cn1 [Example 9, N-(2-(1H-imidazol-4-yl)ethyl)-N-(2-((9Z,12Z)-octadeca-9,12-dienyloxy)-1-(((9Z,12Z)-octadeca-9,12-dienyloxy)methyl)ethyl)amine]",Size,[3]; [5],116.8 nm
same,% Encapsulation Efficiency,[1]; [5],95.8%
same,% Encapsulation Efficiency,[1]; [6],98.9%
same,PDI (size distribution),[2]; [4],0.13
same,Size,[2]; [4],138 nm
same,PDI (size distribution),[2]; [6],0.104
same,Size,[2]; [6],87 nm
"CCCCC/C=C\C/C=C\CCCCCCCCOCC(COCCCCCCCC/C=C\C/C=C\CCCCC)N(C)Cc1cccc(CN2CCCC2)c1 [Example 18, N-methyl-N-(2-((9Z,12Z)-octadeca-9,12-dienyloxy)-1-(((9Z,12Z)-octadeca-9,12-dienyloxy)methyl)ethyl)-N-(3-(pyrrolidin-1-ylmethyl)benzyl)amine]",Size,[3]; [7],122 nm
same,% Encapsulation Efficiency,[1]; [7],96.7%
"CCCCC/C=C\C/C=C\CCCCCCCCOCC(COCCCCCCCC/C=C\C/C=C\CCCCC)N1CCN(CCn2ccnc2)CC1 [Example 19, 1-(2-(1H-imidazol-1-yl)ethyl)-4-(2-((9Z,12Z)-octadeca-9,12-dienyloxy)-1-(((9Z,12Z)-octadeca-9,12-dienyloxy)methyl)ethyl)piperazine]",Size,[3]; [7],118 nm
same,% Encapsulation Efficiency,[1]; [7],97.0%
"CCCCC/C=C\C/C=C\CCCCCCCCOCC(COCCCCCCCC/C=C\C/C=C\CCCCC)NCc1cccnc1N1CCCC1 [Example 20, N-(2-((9Z,12Z)-octadeca-9,12-dienyloxy)-1-(((9Z,12Z)-octadeca-9,12-dienyloxy)methyl)ethyl)-N-((2-pyrrolidin-1-ylpyridin-3-yl)methyl)amine]",Size,[3]; [7],134 nm
same,% Encapsulation Efficiency,[1]; [7],55.9%
"CCCCC/C=C\C/C=C\CCCCCCCC(=O)OCC(COC(=O)CCCCCCC/C=C\C/C=C\CCCCC)N1CCN(C)CC1 [Example 21, (9Z,9′Z,12Z,12′Z)-2-(4-methylpiperazin-1-yl)propane-1,3-diyl dioctadeca-9,12-dienoate]",Size,[3]; [7],117.2 nm
same,% Encapsulation Efficiency,[1]; [7],96.6%
"CCCCC/C=C\C/C=C\CCCCCCCC(=O)OCC(COC(=O)CCCCCCC/C=C\C/C=C\CCCCC)NCCCN1CCCC1 [Example 22, (9Z,9′Z,12Z,12′Z)-2-(3-(pyrrolidin-1-yl)propylamino)propane-1,3-diyl dioctadeca-9,12-dienoate]",Size,[3]; [7],120.8 nm
same,% Encapsulation Efficiency,[1]; [7],88.4%
"CCCCC/C=C\C/C=C\CCCCCCCCOCC(COCCCCCCCC/C=C\C/C=C\CCCCC)CN1CCN(C)CC1 [Example 23, 1-methyl-4-(3-((9Z,12Z)-octadeca-9,12-dienyloxy)-2-(((9Z,12Z)-octadeca-9,12-dienyloxy)methyl)propyl)piperazine]",% Encapsulation Efficiency,[1]; [5],98.1%
same,% Encapsulation Efficiency,[1]; [4],93.2%
same,PDI (size distribution),[2]; [4],0.054
same,Size,[2]; [4],116 nm
"CCCCC/C=C\C/C=C\CCCCCCCCOCC(COCCCCCCCC/C=C\C/C=C\CCCCC)N1CCN(CCN2CCCC2)CC1 [Example 52, 1-(2-[(9Z,12Z)-octadeca-9,12-dienyloxy]-1-{[(9Z,12Z)-octadeca-9,12-dienyloxy]methyl}ethyl)-4-(2-pyrrolidin-1-ylethyl)piperazine]",Size,[3]; [7],111.6 nm
same,% Encapsulation Efficiency,[1]; [7],77.9%
"CCCCCCCC/C=C\CCCCCCCCOCC(COCCCCCCCC/C=C\CCCCCCCC)NCCCN1CCCC1 [Example 53, N-(2-[(9Z)-octadec-9-enyloxy]-1-{[(9Z)-octadec-9-enyloxy]methyl}ethyl)-N-(3-pyrrolidin-1-ylpropyl)amine]",% Encapsulation Efficiency,[1]; [5],99.0%
same,% Encapsulation Efficiency,[1]; [8],99.0%
same,PDI (size distribution),[2]; [8],0.089
same,Size,[2]; [8],121.2 nm
